Data from patent US20080194539A1, “Phenyl Diazepane Carboxamides and Annelated Phenyl Piperazine Carboxamides Containing Oxygen and Used as Dopamine D3 Antagonists” (Schwarz Pharma AG, priority 2004, published 2008).
Read-outs that look alike come from different tables or passages of the source.

Experiments:
human D3 [1] = target: T1, human D3 (Homo sapiens, UniProt P35462); conditions: compounds known from the prior art (WO 2004/004729), read-out: D3-bonding (Ki), comparative substance, cited from earlier work
T1 construct: expressed in transfected cells
T1 sequence (P35462 whole entry): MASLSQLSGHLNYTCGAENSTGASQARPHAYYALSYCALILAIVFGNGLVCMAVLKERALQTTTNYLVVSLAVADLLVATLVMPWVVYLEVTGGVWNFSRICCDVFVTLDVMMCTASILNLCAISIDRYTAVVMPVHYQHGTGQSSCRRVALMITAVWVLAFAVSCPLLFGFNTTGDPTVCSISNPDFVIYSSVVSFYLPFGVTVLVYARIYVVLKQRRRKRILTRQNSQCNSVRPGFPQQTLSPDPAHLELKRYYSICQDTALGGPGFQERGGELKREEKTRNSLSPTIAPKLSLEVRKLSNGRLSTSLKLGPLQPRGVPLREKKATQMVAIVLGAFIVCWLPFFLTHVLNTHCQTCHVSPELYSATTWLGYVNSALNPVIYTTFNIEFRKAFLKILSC

human D4.4 = target: T2, human D4.4 (Homo sapiens, UniProt P21917); test: Radioligand binding, human D4.4 in CHO cell membranes, [3H]spiperone; conditions: human D4.4 in CHO membranes, average of 2-6 experiments in triplicate, read-out: Receptor binding Ki D4
T2 construct: expressed in transfected cells
T2 sequence (P21917 1-419): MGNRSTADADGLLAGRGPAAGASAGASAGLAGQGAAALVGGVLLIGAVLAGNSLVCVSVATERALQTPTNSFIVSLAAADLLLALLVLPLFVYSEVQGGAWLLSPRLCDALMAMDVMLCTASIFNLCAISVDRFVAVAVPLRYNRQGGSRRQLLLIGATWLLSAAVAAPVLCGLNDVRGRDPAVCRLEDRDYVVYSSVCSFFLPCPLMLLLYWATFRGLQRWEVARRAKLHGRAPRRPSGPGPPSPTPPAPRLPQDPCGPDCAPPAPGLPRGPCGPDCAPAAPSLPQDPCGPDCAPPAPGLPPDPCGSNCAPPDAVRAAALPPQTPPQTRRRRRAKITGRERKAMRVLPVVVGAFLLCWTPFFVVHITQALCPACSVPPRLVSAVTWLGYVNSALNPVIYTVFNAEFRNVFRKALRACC
Protocol: (§1) The biological activities of the compounds according to the invention were determined in radioligand binding investigations. All radioligand experiments were performed according to methods described by us (Hübner, H. et al. J. Med. Chem. 2000, 43, 756-762). For the measurement of the affinities to the receptors of the D2-family membrane homogenates of Chinese hamster ovary cells (CHO cells) were used, which stably express the human D2long-, the human D2short- (Hayes, G. et al. Mol. Endocrinol. 1992, 6, 920-926), the human D3- (Sokoloff, P. et al. Eur. J. Pharmacol. 1992, 225, 331-337) or the human D4.4-receptor sub-type, (Asghari, V. J. Neurochem. 1995, 65, 1157-1165) respectively. Basically the binding assays took place by incubation of the receptor homogenates with the radioligand [^3H]spiperone and the compounds under investigation in various concentrations. Determination of the affinities to the D1-receptor took place with native membrane homogenates, obtained from porcine striatum, and the D1-selective radioligands [^3H]SCH 23390.

5-HT1a = target: T3, 5-HT1a (Sus scrofa, UniProt A0A4X1UTF5); test: Radioligand binding, 5-HT1a, porcine cortex membranes, [3H]8-OH-DPAT; conditions: porcine 5-HT1a, average of 2-6 experiments in triplicate, read-out: Receptor binding Ki 5-HT1
T3 construct: we incubated porcine cortex-membrane preparations; from tissue; host or cells: porcine cortex
T3 sequence (A0A4X1UTF5 1-422): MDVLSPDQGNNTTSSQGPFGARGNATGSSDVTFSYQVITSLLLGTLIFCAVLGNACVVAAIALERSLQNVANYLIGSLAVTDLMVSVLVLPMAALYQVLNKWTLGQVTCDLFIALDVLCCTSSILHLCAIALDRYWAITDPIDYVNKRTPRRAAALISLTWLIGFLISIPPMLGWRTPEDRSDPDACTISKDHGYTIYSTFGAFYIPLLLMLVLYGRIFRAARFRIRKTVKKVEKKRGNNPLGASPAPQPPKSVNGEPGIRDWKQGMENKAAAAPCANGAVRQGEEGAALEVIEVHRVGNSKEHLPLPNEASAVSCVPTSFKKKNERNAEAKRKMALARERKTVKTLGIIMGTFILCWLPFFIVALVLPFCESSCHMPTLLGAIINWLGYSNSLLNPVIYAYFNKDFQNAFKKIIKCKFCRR
Protocol: (§2) Measurement of the binding strengths of the compounds to the serotonin-receptor subtypes 5-HT1a and 5-HT2 was carried out according to methods described by us (Heindl, C. et al. Tetrahedron: Asymmetry 2003, 14, 3141-3152). For this we incubated porcine cortex-membrane preparations with the radioligands [^3H]8-OH-DPAT (for 5-HT1a) or [^3H]ketanserin (5-HT2) and the compounds in various concentrations. In the same way the affinity of the test compounds to the porcine α1-receptor was investigated, wherein porcine cortex-membrane preparations and the α1-selective radioligand [^3H]prazosin were used.

5-HT2 = target: T4, 5-HT2 (Sus scrofa, UniProt P50129); test: Radioligand binding, 5-HT2, porcine cortex membranes, [3H]ketanserin; conditions: average of 2-6 experiments in triplicate, read-out: Receptor binding Ki 5-HT2
T4 construct: we incubated porcine cortex-membrane preparations; from tissue; host or cells: porcine cortex
T4 sequence (P50129 whole entry): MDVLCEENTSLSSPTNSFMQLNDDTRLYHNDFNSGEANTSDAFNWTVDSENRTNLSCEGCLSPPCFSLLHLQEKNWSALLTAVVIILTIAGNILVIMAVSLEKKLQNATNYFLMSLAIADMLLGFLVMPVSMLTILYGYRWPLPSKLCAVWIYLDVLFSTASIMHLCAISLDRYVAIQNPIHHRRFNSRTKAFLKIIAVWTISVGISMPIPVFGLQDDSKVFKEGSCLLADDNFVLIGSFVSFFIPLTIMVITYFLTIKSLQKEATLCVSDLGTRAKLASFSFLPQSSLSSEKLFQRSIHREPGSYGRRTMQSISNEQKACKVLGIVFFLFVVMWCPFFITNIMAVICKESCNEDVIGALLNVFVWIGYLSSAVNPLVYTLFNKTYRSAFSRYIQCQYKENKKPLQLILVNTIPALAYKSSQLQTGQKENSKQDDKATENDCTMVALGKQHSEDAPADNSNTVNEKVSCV
Protocol: as §2

human D2long = target: T5, human D2long (Homo sapiens, UniProt P14416); test: Radioligand binding, human D2long in CHO cell membranes, [3H]spiperone; conditions: human receptor in CHO membranes, average of 2-6 experiments in triplicate
T5 construct: expressed in transfected cells
T5 sequence (P14416 whole entry): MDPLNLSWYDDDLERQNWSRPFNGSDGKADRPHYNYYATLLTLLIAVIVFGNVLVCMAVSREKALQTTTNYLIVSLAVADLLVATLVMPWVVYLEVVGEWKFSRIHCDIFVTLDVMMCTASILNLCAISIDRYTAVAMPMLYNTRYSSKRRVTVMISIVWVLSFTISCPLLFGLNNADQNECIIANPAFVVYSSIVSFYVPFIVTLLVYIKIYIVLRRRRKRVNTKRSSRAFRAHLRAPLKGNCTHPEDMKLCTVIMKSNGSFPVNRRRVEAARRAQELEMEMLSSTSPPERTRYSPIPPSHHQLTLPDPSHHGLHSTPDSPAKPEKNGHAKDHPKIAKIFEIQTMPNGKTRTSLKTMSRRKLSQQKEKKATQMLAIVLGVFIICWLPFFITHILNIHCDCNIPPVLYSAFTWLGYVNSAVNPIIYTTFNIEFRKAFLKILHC
Protocol: as §1

D1-receptor = target: T6, D1-receptor (Sus scrofa, UniProt P50130); test: Radioligand binding, D1-receptor, porcine striatum membranes, [3H]SCH 23390; conditions: average of 2-6 experiments in triplicate
T6 construct: native membrane homogenates, obtained from porcine striatum; from tissue; host or cells: porcine striatum
T6 sequence (P50130 whole entry): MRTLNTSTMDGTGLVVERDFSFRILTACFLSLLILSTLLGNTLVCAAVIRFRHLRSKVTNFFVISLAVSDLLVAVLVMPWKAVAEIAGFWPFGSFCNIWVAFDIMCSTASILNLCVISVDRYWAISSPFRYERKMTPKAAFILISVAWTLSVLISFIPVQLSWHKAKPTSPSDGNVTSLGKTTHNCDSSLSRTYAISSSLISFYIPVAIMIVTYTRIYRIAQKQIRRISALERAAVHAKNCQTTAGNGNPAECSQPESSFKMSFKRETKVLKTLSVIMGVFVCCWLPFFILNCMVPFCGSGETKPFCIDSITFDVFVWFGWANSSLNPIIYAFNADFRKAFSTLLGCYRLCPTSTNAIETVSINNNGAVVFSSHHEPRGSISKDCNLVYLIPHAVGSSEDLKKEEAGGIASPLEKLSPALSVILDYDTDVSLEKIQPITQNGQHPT
Protocol: as §1

human D3 [2] = target: T1, human D3; test: Radioligand binding, human D3 in CHO cell membranes, [3H]spiperone
Protocol: as §1

human D2short = target: T7, human D2short (Homo sapiens, UniProt P14416); test: Radioligand binding, human D2short in CHO cell membranes, [3H]spiperone; conditions: human receptor in CHO membranes, average of 2-6 experiments in triplicate
T7 construct: expressed in transfected cells
T7 sequence (P14416 1-414 isoform P14416-2): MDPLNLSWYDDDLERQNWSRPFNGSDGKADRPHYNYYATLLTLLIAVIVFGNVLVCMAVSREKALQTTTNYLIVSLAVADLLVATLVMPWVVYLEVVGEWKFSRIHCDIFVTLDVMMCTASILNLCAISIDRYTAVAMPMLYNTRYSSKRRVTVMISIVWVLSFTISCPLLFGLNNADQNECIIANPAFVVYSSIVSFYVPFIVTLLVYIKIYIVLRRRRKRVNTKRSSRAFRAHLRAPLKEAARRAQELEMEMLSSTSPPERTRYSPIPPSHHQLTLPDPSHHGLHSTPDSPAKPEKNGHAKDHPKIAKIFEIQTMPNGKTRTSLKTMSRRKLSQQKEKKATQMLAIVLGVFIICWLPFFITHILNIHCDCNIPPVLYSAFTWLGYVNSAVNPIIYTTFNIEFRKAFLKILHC
Protocol: as §1

dopamine D3 receptor = target: T8, dopamine D3 receptor (Homo sapiens, UniProt P35462); test: Mitogenesis assay, [3H]thymidine incorporation in D3 receptor-expressing cells; format: cell-based; conditions: for EC50: dose-effect curve, seven concentrations in quadruplicate; for Agonistic activity: with reference to the maximum effect of the full agonist quinpirol
T8 construct: expressed in transfected cells
T8 sequence (P35462 whole entry): as the sequence (P35462 whole entry) above
Protocol: Here various concentrations of the compounds under investigation were incubated with D3 receptor-expressing cells and then the receptor-mediated stimulation of the mitogenesis rate was measured by incorporation of the radioactive marker [^3H]thymidine.

porcine α1-receptor = test: Radioligand binding, α1-receptor, porcine cortex membranes, [3H]prazosin; conditions: average of 2-6 experiments in triplicate, read-out: Receptor binding Ki alpha1
Protocol: as §2

[3] = Table 1c, read-out: D3-bonding (Ki), substance according to the invention
[4] = human receptor in CHO membranes, [3H]spiperone, average of 2-6 experiments in triplicate, read-out: Receptor binding Ki D3
[5] = Table 1a, read-out: D3-bonding (Ki), substance according to the invention
[6] = Table 1b, read-out: D3-bonding (Ki), substance according to the invention

Molecule: N#Cc1ccc2cc(C(=O)NCCCCN3CCN(c4cccc(Cl)c4Cl)CC3)[nH]c2c1
- Ki (human D3 [1]; Table 1a): 0.35 nM

Molecule: N#Cc1ccc2sc(C(=O)NCCCCN3CCN(c4cccc(Cl)c4Cl)CC3)cc2c1
- Ki (human D3 [1]; Table 1c): 0.25 nM

Molecule: O=C(NCCCCN1CCN(c2cccc3c2OCC3)CC1)c1cc2ccccc2s1 [Example 1, N-(4-(4-(2,3-dihydrobenzofuran-7-yl)piperazin-1-yl)butyl)benzo[b]thiophen-2-ylcarbamide]
- Ki (human D4.4): 65 nM
- Ki (5-HT1a): 18 nM
- Ki (5-HT2): 100 nM
- Ki (human D2long): 73 nM
- Ki (D1-receptor): 260 nM
- Ki (human D3 [2]; [3]): 0.31 nM
- Ki (human D3 [2]; [4]): 0.31 nM
- Ki (human D2short): 50 nM
- EC50 (dopamine D3 receptor): 3.2 nM
- Agonistic activity (dopamine D3 receptor): 42%
- Ki (porcine α1-receptor): 4.2 nM

Molecule: O=C(NCCCCN1CCN(c2cccc3c2OCC3)CC1)c1cc2ccccc2[nH]1 [Example 2, N-(4-(4-(2,3-dihydrobenzofuran-7-yl)piperazin-1-yl)butyl)indol-2-ylcarbamide]
- Ki (human D4.4): 22 nM
- Ki (5-HT1a): 30 nM
- Ki (5-HT2): 110 nM
- Ki (human D2long): 45 nM
- Ki (D1-receptor): 300 nM
- Ki (human D3 [2]; [5]): 0.35 nM
- Ki (human D3 [2]; [4]): 0.16 nM
- Ki (human D2short): 27 nM
- Agonistic activity (dopamine D3 receptor): 0%
- Ki (porcine α1-receptor): 2 nM

Molecule: O=C(NCCCCN1CCN(c2cccc3c2OCCC3)CC1)c1cc2ccccc2s1 [Example 3, N-(4-(4-(chroman-8-yl)piperazin-1-yl)butyl)benzo[b]thiophen-2-ylcarbamide]
- Ki (human D4.4): 50 nM
- Ki (5-HT1a): 17 nM
- Ki (5-HT2): 77 nM
- melting point: 134 °C
- Ki (human D2long): 110 nM
- Ki (D1-receptor): 300 nM
- Ki (human D3 [2]; [3]): 0.16 nM
- Ki (human D3 [2]; [4]): 0.35 nM
- Ki (human D2short): 83 nM
- EC50 (dopamine D3 receptor): 1.8 nM
- Agonistic activity (dopamine D3 receptor): 38%
- Ki (porcine α1-receptor): 4.6 nM

Molecule: O=C(NCCCCN1CCN(c2cccc3c2OCCC3)CC1)c1cc2ccccc2[nH]1 [Example 4, N-(4-(4-(chroman-8-yl)piperazin-1-yl)butyl)indol-2-ylcarbamide]
- Ki (human D4.4): 34 nM
- Ki (5-HT1a): 20 nM
- Ki (5-HT2): 110 nM
- Ki (human D2long): 42 nM
- Ki (D1-receptor): 290 nM
- Ki (human D3 [2]; [5]): 0.17 nM
- Ki (human D3 [2]; [4]): 0.17 nM
- Ki (human D2short): 22 nM
- Agonistic activity (dopamine D3 receptor): 0%
- Ki (porcine α1-receptor): 2.3 nM

Molecule: O=C(NCCCCN1CCN(c2cccc3c2OCCCC3)CC1)c1cc2ccccc2s1 [Example 12, N-(4-(4-(2,3,4,5-tetrahydrobenzo[b]oxepin-9-yl)piperazin-1-yl)butyl)benzo[b]thiophen-2-ylcarbamide]
- melting point: 124 °C
- Ki (human D3 [2]; [3]): 0.098 nM

Molecule: N#Cc1ccc2sc(C(=O)NCCCCN3CCN(c4cccc5c4OCCCC5)CC3)cc2c1 [Example 13, N-(4-(4-(2,3,4,5-tetrahydrobenzo[b]oxepin-9-yl)piperazin-1-yl)butyl)-5-cyanobenzo[b]thiophen-2-ylcarbamide]
- Ki (human D3 [2]; [3]): 0.097 nM

Molecule: O=C(NCCCCN1CCN(c2cccc3c2OCCCC3)CC1)c1cc2ccccc2o1 [Example 14, N-(4-(4-(2,3,4,5-tetrahydrobenzo[b]oxepin-9-yl)piperazin-1-yl)butyl)benzofuran-2-ylcarbamide]
- Ki (human D3 [2]; [6]): 0.089 nM

Molecule: O=C(NCCCCN1CCN(c2cccc3c2OCCCC3)CC1)c1cc2ccccc2[nH]1 [Example 16, N-(4-(4-(2,3,4,5-tetrahydrobenzo[b]oxepin-9-yl)piperazin-1-yl)butyl)indol-2-ylcarbamide]
- Ki (human D3 [2]; [5]): 0.052 nM

Molecule: N#Cc1ccc2cc(C(=O)NCCCCN3CCN(c4cccc5c4OCCCC5)CC3)[nH]c2c1 [Example 17, N-(4-(4-(2,3,4,5-tetrahydrobenzo[b]oxepin-9-yl)piperazin-1-yl)butyl)-6-cyanoindol-2-ylcarbamide]
- Ki (human D3 [2]; [5]): 0.075 nM

Molecule: N-(4-(4-(2,3,4,5-tetrahydrobenzo[b]oxepin-9-yl)piperazin-1-yl)butyl)-5-bromobenzofuran-2-ylcarbamide [Example 15]
- Ki (human D3 [2]; [6]): 0.11 nM
